Test results taken from patent US10118922B2 (Janssen Pharmaceutica NV, priority 2013, dated 2018).

Columns and labels:
[1] = system: C57B16 mice on a high fat diet; assay: GPR120 DIO mice OGTT screening; type: in vivo, mouse; details: dosed 30 min prior to glucose PO
Protocol: 18-22 week old, C57B16 mice on a high fat diet (60% HFD) for 12-16 weeks (ave. body weight ˜37-41 g) were fasted for 6 hr, with removal of food occurring at 7 am on the morning of the study. The animals were sorted into treatment groups the day before the study by body weight. Animals outside the bounds of ˜30-50 g were left out of the study. The animals had been handled and shammed a total of 5-8 days (1-3 days immediately prior to the study). Glucose (in 1 mL syringes) was drawn up the morning of the study. Test compounds were kept spinning and were only drawn into 1 ml syringes prior to study commencement. Animals were bled via tail snip to determine basal glucose levels prior to dosing of treatments. An Ascensia BREEZE Blood Glucose Monitoring System by Bayer was used for determining glucose levels.
Animals were moved into the testing room at ˜9-11 am, to yield them time to acclimate. The bleeds and dosing started at approximately 1 pm in 30-second intervals per animal. All groups were dosed 30 minutes prior to glucose administration at a dose volume of 10 ml/kg (the dose volume was calculated separately for each individual animal). Test compounds were administered at one or more of the following dosages: 0.1 mg/kg, 0.3 mg/kg, 1 mg/kg, 3 mg/kg and 10 mg/kg.
Thirty minutes after the first dose (with test compound) animals were bled again for a second baseline, or T=0, and immediately dosed with glucose (20% solution; TEKNOVA, 250 ml sterile bottle w/ catalogue number G0525) via a PO injection. The exact dose volume for glucose was also calculated separately for each individual animal.
Blood glucose was measured at 15, 30, 45, 60, and 90 minutes post-glucose administration via the snipped tail. If an animal reached a value of “HI”, the upper limit of the glucometer (600 mg/dl) was substituted as the blood glucose value and the study was analyzed as normal with no exclusions. If 50% or more of any treatment group reaches a “HI” value at least once, the study was considered invalid and repeated. Glucose values were typed into an EXCEL spreadsheet where they were used to calculate glucose AUC and delta AUC post-compound and post-glucose. The glucose excursion curves and the different versions of the AUC's were graphed in GraphPad Prism 5.
Note: All statistics completed in this study were completed using the statistical software package GraphPad Prism 5. Standard procedures for analyzing data sets from screening GPR120 compounds in DIO mouse OGTT's were as listed here below. In addition to the statistics that were run using GraphPad Prism 5, Microsoft Excel was used to calculate the percent changes in AUC from vehicle groups as detailed below.
Change from −30 to 0 BSLN Glucose, Raw Glucose AUC −30 to 90 min, Delta Glucose AUC −30 to 90 min, Raw Glucose AUC 0 to 90 min, Delta Glucose AUC 0 to 90 min were analyzed using Column Statistics Analysis, with mean values used to calculate % change from the vehicle mean group, as well as mean, SEM and/or % change from vehicle, where appropriate; and using One-Way ANOVA w/ a Tukey Post-Test (Comparing All Pairs of Columns) with each treatment group examined to see if it was statistically significant compared to vehicle (*=P<0.05, **=P<0.01, ***=P<0.001).

[2] = system: C57bl/6J Mice; assay: GPR120 C57bl6 mouse IPGTT; type: in vivo; details: 3 mg/kg, dosed 30 min prior to glucose IP 1.5 g/kg
Protocol: (§1) Male, C57bl/6J Mice were ordered in at 8 weeks of age from Jackson Labs. Individual mice weighed anywhere in the range of 25-30 grams on study day. The mice were fasted, with removal of food occurring at 7 am on the morning of the study. Animals were moved into the room at 10:00 am, to give them time to acclimate. Glucose (insulin syringes) was drawn up either the night before or the morning of the study. Glucose was dosed (IP) at 1.5 g/kg at 7.5 ml/kg (20% glucose straight TEKNOVA, 250 ml sterile bottle w/ catalogue number G0525). Test compounds were kept spinning and were only drawn into the syringes prior to study commencement. Animals were bled via tail snip to determine basal glucose levels prior to dosing of treatments. An Ascensia BREEZE Blood Glucose Monitoring System by Bayer (using unique 10-test disks) was used for determining glucose levels. The bleeds started at approximately 12:45 pm and dosing started, at 1-minute intervals, immediately after. All groups were dosed 30 minutes prior to glucose administration at a dose volume of 10 ml/kg (the dose volume was calculated separately for each individual animal). Thirty minutes after the first dose animals were bled again for a second baseline, or T=0, and immediately dosed with glucose via an i.p. injection. The exact dose volume for glucose was also calculated separately for each individual animal. Glucose measurements were taken at −30 min prior to compound dose, at t=0 (immediately prior to glucose dose), and at 15, 30, 45, 60, 90 min post glucose dose.
(§2) Glucose values were entered into an Excel sheet and graphed in GraphPad Prism. The following were calculated from Prism: Change from −30 to 0 BSLN Glucose, Raw Glucose AUC −30 to 90 min, Delta Glucose AUC −30 to 90 min, Raw Glucose AUC 0 to 90 min, Delta Glucose AUC 0 to 90 min.

[3] = system: C57b16 mouse; assay: C57b16 mouse OGTT; type: in vivo; details: dosed 30 min prior to glucose PO 3 g/kg
Protocol: as §1, §2
The assay design is the same as that described above for the C57b16 mouse IPGTT. The difference is that glucose was dosed PO at 3 g/kg, 7.5 ml/kg of 40% glucose.

SMILES: O=C(O)CCc1cc(F)c(OCc2c(C3CCCC3)nsc2C(F)(F)F)c(F)c1 [Cpd 71, 3-(4-[[3-cyclopentyl-5-(trifluoromethyl)-1,2-thiazol-4-yl]methoxy]-3,5-difluorophenyl)propanoic acid]
- DIO Lowering Glucose AUC (−30 to 90) @ 10 mg/kg [1]: −0.52
- C57 IPGTT 3 mg/kg [2]: −14
- C57 OGTT 3 mg/kg [3]: −37
